According to ChEMBL document CHEMBL4483862, “Open-source discovery of chemical leads for next-generation chemoprotective antimalarials” (2018):
pIC50: −log10 of the molar value.

System: Plasmodium berghei
Assay: Luciferase/luciferin-expressing antifolate-resistant parasites were used to infect a culture of HepG2 cells that were pre-incubated with compounds. Infected hepatocytes emit light due to the luciferase reaction. Assay results are presented as the percent inhibition of light emission compared to control. […]
Format: functional
Details: sporozoite; for IC90: read-out: LUCIFERASE INFECTION ASSAY - IC90

Row | SMILES | IC90 [µM] | also measured
1 | Cc1cc(NC(=O)COC(=O)CCCOc2ccc(Cl)cc2C)no1 | > 10 | pIC50 (FFLUC_HILL_SLOPE 1.69, FFLUC_R_SQUARED 0.223, read-out: LUCIFERASE INFECTION ASSAY - IC50): < 5.00
2 | Fc1ccccc1-c1cnn2c(NCCc3ccccn3)ccnc12 | 0.681 | pIC50 (FFLUC_HILL_SLOPE 1.74, FFLUC_R_SQUARED 0.803, PBLUC_HILL_SLOPE 0.998, PBLUC_R_SQUARED 0.825, read-out: LUCIFERASE INFECTION ASSAY - IC50): 7.12
3 | CCCCCCCCCCCc1n[nH]c(=S)n1-c1ccccc1C(F)(F)F | > 8.26 | pIC50 (FFLUC_HILL_SLOPE 1.62, FFLUC_R_SQUARED 0.783, read-out: LUCIFERASE INFECTION ASSAY - IC50): < 5.08
4 | O=C(Nc1cccc(S(=O)(=O)NC2CC2)c1)c1ccccc1SCc1ccco1 | 4.79 | pIC50 (FFLUC_HILL_SLOPE 1.74, FFLUC_R_SQUARED 0.575, HEPG2TOX_HILL_SLOPE 9.06, HEPG2TOX_R_SQUARED 0.765, PBLUC_HILL_SLOPE 112, PBLUC_R_SQUARED 0.186, read-out: LUCIFERASE INFECTION ASSAY - IC50): 5.33
5 | COCC(C)n1c(C)cc(C(=O)COC(=O)c2ccccc2SCC(=O)NC2CCCCCCC2)c1C (centres undefined) | 5.25 | pIC50 (FFLUC_HILL_SLOPE 1.67, FFLUC_R_SQUARED 0.346, PBLUC_HILL_SLOPE 7.4, PBLUC_R_SQUARED 0.408, read-out: LUCIFERASE INFECTION ASSAY - IC50): 5.41
6 | CN(C)c1ccc(-c2cc3cnc(Nc4cccc(Oc5ccccc5)c4)cc3n2C)cc1 | 6.91 | pIC50 (FFLUC_HILL_SLOPE 1.74, FFLUC_R_SQUARED 0.698, HEPG2TOX_HILL_SLOPE 44.7, HEPG2TOX_R_SQUARED 0.888, PBLUC_HILL_SLOPE 2.41, PBLUC_R_SQUARED 0.586, read-out: LUCIFERASE INFECTION ASSAY - IC50): 5.56
7 | COCCCNc1nccn2c(-c3ccccc3OC)cnc12 | 5 | pIC50 (FFLUC_HILL_SLOPE 1.63, FFLUC_R_SQUARED 0.685, HEPG2TOX_HILL_SLOPE 3.12, HEPG2TOX_R_SQUARED 0.689, PBLUC_HILL_SLOPE 1.97, PBLUC_R_SQUARED 0.68, read-out: LUCIFERASE INFECTION ASSAY - IC50): 5.79
8 | O=C1C(c2ccccc2)=C(c2ccccc2)C(c2ccccc2)=C1c1ccccc1 | > 8.58 | pIC50 (FFLUC_HILL_SLOPE 1.74, FFLUC_R_SQUARED 0.65, PBLUC_HILL_SLOPE 1.01, PBLUC_R_SQUARED 0.27, read-out: LUCIFERASE INFECTION ASSAY - IC50): 5.39
9 | O=C(Sc1ccc(Cl)cc1Cl)c1cccnc1SCCS(=O)(=O)c1ccc(C(F)(F)F)cn1 | > 5.96 | pIC50 (FFLUC_HILL_SLOPE 1.65, FFLUC_R_SQUARED 0.565, PBLUC_HILL_SLOPE 0.597, PBLUC_R_SQUARED 0.0951, read-out: LUCIFERASE INFECTION ASSAY - IC50): < 5.22
10 | CC(C)c1csc(NC(=O)c2cnn(-c3ccccc3F)c2C(F)(F)F)n1 | 2.32 | pIC50 (FFLUC_HILL_SLOPE 1.67, FFLUC_R_SQUARED 0.227, HEPG2TOX_HILL_SLOPE 2.85, HEPG2TOX_R_SQUARED 0.664, PBLUC_HILL_SLOPE 0.553, PBLUC_R_SQUARED 0.884, read-out: LUCIFERASE INFECTION ASSAY - IC50): 7.36
11 | Cc1csc(NC(=O)c2cc(C3CC3)n[nH]2)n1 | > 10 | pIC50 (FFLUC_HILL_SLOPE 1.65, FFLUC_R_SQUARED 0.902, read-out: LUCIFERASE INFECTION ASSAY - IC50): < 5.00
12 | Cc1cccc(C(=O)Nc2nnc(SCc3ccc(C#N)cc3)s2)n1 | 6.71 | pIC50 (FFLUC_HILL_SLOPE 1.7, FFLUC_R_SQUARED 0.312, PBLUC_HILL_SLOPE 60.1, PBLUC_R_SQUARED 0.803, read-out: LUCIFERASE INFECTION ASSAY - IC50): 5.19
13 | CCc1cccc(Nc2nc3ccccc3s2)c1 | > 10 | pIC50 (FFLUC_HILL_SLOPE 1.67, FFLUC_R_SQUARED 0.624, read-out: LUCIFERASE INFECTION ASSAY - IC50): < 5.00
14 | CCc1ccc(NC(=O)CN(c2cccc3ccccc23)S(=O)(=O)c2ccc(C)c(C)c2)cc1 | > 10 | pIC50 (FFLUC_HILL_SLOPE 1.69, FFLUC_R_SQUARED 0.486, read-out: LUCIFERASE INFECTION ASSAY - IC50): < 5.00
15 | CCN(CC)S(=O)(=O)c1ccc(NC(=O)c2ccccc2Nc2cccc(C(F)(F)F)c2)cc1 | > 10 | pIC50 (FFLUC_HILL_SLOPE 1.74, FFLUC_R_SQUARED 0.823, read-out: LUCIFERASE INFECTION ASSAY - IC50): < 5.00
16 | O=[N+]([O-])c1ccc(Oc2c(Cl)cc(S(=O)(=O)Nc3cccc(C(F)(F)F)c3)cc2Cl)c(Cl)c1 | > 6.09 | pIC50 (FFLUC_HILL_SLOPE 1.65, FFLUC_R_SQUARED 0.655, read-out: LUCIFERASE INFECTION ASSAY - IC50): < 5.22

Row | SMILES | IC90 [µM] | also measured
17 | Fc1cccc(Cl)c1CSc1ccc(Cl)c(Cl)c1 | > 10.3 | pIC50 (FFLUC_HILL_SLOPE 1.69, FFLUC_R_SQUARED 0.519, read-out: LUCIFERASE INFECTION ASSAY - IC50): < 4.99
18 | CN(C)c1ccc(C(c2cc(C(C)(C)C)c(O)c(C(C)(C)C)c2)N2CCN(CCO)CC2)cc1 (centres undefined) | > 10 | pIC50 (FFLUC_HILL_SLOPE 1.7, FFLUC_R_SQUARED 0.646, PBLUC_HILL_SLOPE 0.736, PBLUC_R_SQUARED 0.152, read-out: LUCIFERASE INFECTION ASSAY - IC50): < 5.00
19 | COc1ccc(C(=O)Nc2nc3ccc(C)cn3c2C(=O)NC2CCCC2)cc1 | 8.02 | pIC50 (FFLUC_HILL_SLOPE 1.65, FFLUC_R_SQUARED 0.455, HEPG2TOX_HILL_SLOPE 5.25, HEPG2TOX_R_SQUARED 0.908, PBLUC_HILL_SLOPE 10.6, PBLUC_R_SQUARED 0.223, read-out: LUCIFERASE INFECTION ASSAY - IC50): 5.19
20 | Cn1c(-c2c(-c3ccccc3)n[nH]c2-c2ccccc2O)nc2ccccc21 | > 10 | pIC50 (FFLUC_HILL_SLOPE 1.64, FFLUC_R_SQUARED 0.277, read-out: LUCIFERASE INFECTION ASSAY - IC50): < 5.00
21 | CN1/C(=C\C(=O)COC(=O)/C=C/c2cn(-c3ccccc3)nc2-c2ccc(F)cc2)C(C)(C)c2ccccc21 | > 10 | pIC50 (FFLUC_HILL_SLOPE 1.67, FFLUC_R_SQUARED 0.511, PBLUC_HILL_SLOPE 9.36, PBLUC_R_SQUARED 0.0694, read-out: LUCIFERASE INFECTION ASSAY - IC50): 5.03
22 | CC(C)CCOc1ccc(C(C2C(=O)CC(C)(C)CC2=O)C2C(=O)CC(C)(C)CC2=O)cc1 | > 10 | pIC50 (FFLUC_HILL_SLOPE 1.63, FFLUC_R_SQUARED 0.537, read-out: LUCIFERASE INFECTION ASSAY - IC50): < 5.00
23 | CCN(c1ccc(NC(=O)c2cnccn2)cc1)C(C)C | > 10 | pIC50 (FFLUC_HILL_SLOPE 1.65, FFLUC_R_SQUARED 0.318, PBLUC_HILL_SLOPE 0.412, PBLUC_R_SQUARED 0.204, read-out: LUCIFERASE INFECTION ASSAY - IC50): < 5.00
24 | O=C(NCC#Cc1cccc(C(F)(F)F)c1)c1[nH]nc2ccccc12 | > 10 | pIC50 (FFLUC_HILL_SLOPE 1.72, FFLUC_R_SQUARED 0.47, read-out: LUCIFERASE INFECTION ASSAY - IC50): < 5.00
25 | CCCCCN1C(=O)/C(=N\n2c(-c3ccccc3F)cs/c2=N\C2CCCCC2)c2ccccc21 | > 10 | pIC50 (FFLUC_HILL_SLOPE 1.7, FFLUC_R_SQUARED 0.73, PBLUC_HILL_SLOPE 13.5, PBLUC_R_SQUARED 0.29, read-out: LUCIFERASE INFECTION ASSAY - IC50): 5.07
26 | O=C(Cn1ncc(Cl)c(Cl)c1=O)N1N=C(c2ccco2)CC1c1cccs1 (centres undefined) | > 10 | pIC50 (FFLUC_HILL_SLOPE 1.67, FFLUC_R_SQUARED 0.501, PBLUC_HILL_SLOPE 2.36, PBLUC_R_SQUARED 0.757, read-out: LUCIFERASE INFECTION ASSAY - IC50): 5.35
27 | O=C(Nc1ccc(F)c(Cl)c1)c1[nH]nc2ccccc12 | > 10 | pIC50 (FFLUC_HILL_SLOPE 1.67, FFLUC_R_SQUARED 0.554, PBLUC_HILL_SLOPE 0.29, PBLUC_R_SQUARED 0.519, read-out: LUCIFERASE INFECTION ASSAY - IC50): 6.98
28 | O=C(OCc1ccc(Cl)cc1)c1cnc(NNc2ncc(C(=O)OCc3ccc(Cl)cc3)c(C(F)(F)F)n2)nc1C(F)(F)F | 0.682 | pIC50 (FFLUC_HILL_SLOPE 1.7, FFLUC_R_SQUARED 0.396, HEPG2TOX_HILL_SLOPE 1.81, HEPG2TOX_R_SQUARED 0.829, PBLUC_HILL_SLOPE 10.6, PBLUC_R_SQUARED 0.55, read-out: LUCIFERASE INFECTION ASSAY - IC50): 6.26
29 | COc1ccc(C2=NNC(=NCc3ccc4c(c3)OCO4)SC2)cc1F | > 10 | pIC50 (FFLUC_HILL_SLOPE 1.69, FFLUC_R_SQUARED 0.437, PBLUC_HILL_SLOPE 4.83, PBLUC_R_SQUARED 0.0332, read-out: LUCIFERASE INFECTION ASSAY - IC50): 5.06
30 | CC1CC(=O)N(CC(=O)Nc2ccc(C(F)(F)F)cc2)N=C1c1ccc(Cl)cc1 (centres undefined) | > 10 | pIC50 (FFLUC_HILL_SLOPE 1.68, FFLUC_R_SQUARED 0.0802, HEPG2TOX_HILL_SLOPE 1.48, HEPG2TOX_R_SQUARED 0.946, read-out: LUCIFERASE INFECTION ASSAY - IC50): < 5.00
31 | c1ccc(-c2cn3nc(N4CCN(Cc5cn6ccccc6n5)CC4)sc3n2)cc1 | 6.12 | pIC50 (FFLUC_HILL_SLOPE 1.63, FFLUC_R_SQUARED 0.146, PBLUC_HILL_SLOPE 1.5, PBLUC_R_SQUARED 0.683, read-out: LUCIFERASE INFECTION ASSAY - IC50): 5.85
32 | COc1ccc(NC(=O)Cc2cccs2)cc1S(=O)(=O)Nc1ccc(Cl)cc1 | > 10 | pIC50 (FFLUC_HILL_SLOPE 1.73, FFLUC_R_SQUARED 0.168, HEPG2TOX_HILL_SLOPE 1.26, HEPG2TOX_R_SQUARED 0.964, PBLUC_HILL_SLOPE 12.3, PBLUC_R_SQUARED 0.183, read-out: LUCIFERASE INFECTION ASSAY - IC50): 5.01
